3 molecules from patent EP4740965A1, “PHARMACEUTICAL COMPOSITION OF COMPOUND FOR INHIBITING AND DEGRADING IRAK4, AND USE THEREOF IN MEDICINE” (Xizang Haisco Pharmaceutical Co., Ltd., priority 2023, dated 2025) can be followed below.

Data set [1] has as its target T1, hERG potassium ion channel (Homo sapiens, UniProt Q12809).
T1 construct: expressed in transfected cells
Description: Effect on hERG potassium ion channel, manual whole cell patch-clamp in CHO cells. The data set is classed as cell-based. Particulars: hamster, inhibitory effect on hERG potassium channel current. From the text:
Test example 3. Test of effect on hERG potassium ion channel
Experimental platform: electrophysiological manual patch-clamp system
Cell line: Chinese hamster ovary (CHO) cell line stably expressing hERG potassium ion channel
Experimental method: In CHO (Chinese Hamster Ovary) cells stably expressing hERG potassium channel, whole cell patch-clamp technique was used to record hERG potassium channel current at room temperature. The glass microelectrode was made of a glass electrode blank (BF150-86-10, Sutter) by a puller. The tip resistance after filling the liquid in the electrode was about 2-5 MΩ. The glass microelectrode can be connected to the patch-clamp amplifier by inserting the glass microelectrode into an amplifier probe. The clamping voltage and data recording were controlled and recorded by the pClamp 10 software through a computer. The sampling frequency was 10 kHz, and the filtering frequency was 2 kHz. […]
Compound IC50 was calculated using GraphPad Prism 5 software by fitting according to the following equation: Y = Bottom + (Top−Bottom)/(1+10^(∧)((LogIC50−X)*HillSlope)) [formula] where X represents the Log value of the tested concentration of the test sample, Y represents the inhibition percentage at the corresponding concentration, and Bottom and Top represent the minimum and maximum inhibition percentage, respectively. […]

In data set [2] the target is T2, IRAK4 (Homo sapiens, UniProt Q9NWZ3).
T2 construct: endogenous in cells; host or cells: human peripheral blood mononuclear cells (hPBMC) from healthy volunteers
T2 sequence (Q9NWZ3 1-460): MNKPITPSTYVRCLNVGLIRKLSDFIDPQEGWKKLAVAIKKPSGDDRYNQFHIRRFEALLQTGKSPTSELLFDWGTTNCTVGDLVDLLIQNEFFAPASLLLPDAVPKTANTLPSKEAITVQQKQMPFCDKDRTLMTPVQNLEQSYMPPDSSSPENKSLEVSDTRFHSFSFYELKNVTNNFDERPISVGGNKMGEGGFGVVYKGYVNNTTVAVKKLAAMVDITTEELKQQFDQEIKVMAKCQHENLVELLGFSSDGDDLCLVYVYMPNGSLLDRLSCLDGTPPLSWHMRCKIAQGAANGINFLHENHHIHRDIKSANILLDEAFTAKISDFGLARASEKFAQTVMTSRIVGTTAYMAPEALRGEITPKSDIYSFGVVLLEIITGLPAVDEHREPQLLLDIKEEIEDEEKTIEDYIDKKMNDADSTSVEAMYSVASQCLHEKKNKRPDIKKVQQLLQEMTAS
Description: IRAK4 degradation activity in hPBMC cells (24 hours), automated western blot. The data set is classed as cell-based. Particulars: IRAK4 protein degradation in hPBMC cells. As to the method:
Test example 1: Study on IRAK4 degradation activity in hPBMC cells (24 hours)
hPBMC cells are human peripheral blood mononuclear cells. Peripheral venous blood was taken from healthy volunteers, and hPBMCs were isolated using Ficoll density gradient centrifugation (Ficoll-PaqueTM PLUS 1.077, GE, Cat. 17-1140-02). Culture conditions: RPMI-1640 + 10% FBS + 1% penicillin-streptomycin solution. The cells were cultured in an incubator at 37°C and 5% CO2. The cells were plated in a 24-well plate at 1 × 10^6 cells/well. After plating, compounds at different concentrations were added, and the cells were cultured in an incubator at 37°C and 5% CO2 for 24 hours. After the culture was completed, the cells were collected, and RIPA lysis buffer (beyotime, Cat. P0013B) was added. […] The protein sample of the supernatant was collected, the protein was quantified using a BCA kit (Beyotime, Cat. P0009), and then the protein was diluted to 1 mg/mL. The expression of IRAK4 (CST, Cat. 4363S) and the internal reference cofilin (CST, Cat. 5175S) were detected using a fully automated western blot quantitative analyser (Proteinsimple). The expression level of IRAK4 relative to the internal reference was calculated using compass software. […] An IRAK4 degradation-drug concentration curve was fit using Graphpad Prism 8 software, and the DC50 was calculated. […]
(In general: Immunoblotting shows a protein as a band on a membrane.)

The nature of data set [3]: Pharmacokinetic test in mice. Particulars: mouse, po; plasma of mice, i.g. (10 mg/kg). The data set is classed as in vivo, ICR mice. As to the method:
Test example 2: Pharmacokinetic test in mice
Experimental animals: Male ICR mice, about 25 g, 6 mice/compound, purchased from Chengdu Ddossy Experimental Animals Co., Ltd.
Test design: On the day of the experiment, 6 ICR mice were randomly grouped according to their body weights. The animals were fasted with water available for 12 to 14 h one day before the administration, and were fed 4 h after the administration. Table 2.1 Administration information
Before and after the administration, 0.15 mL of blood was taken from the orbit of the animals under isoflurane anaesthesia and placed in an EDTAK2 centrifuge tube. The blood was centrifuged at 5000 rpm and 4°C for 10 min to collect plasma. The blood collection time points for the intravenous administration group and intragastric administration group were 0 min, 5 min, 15 min, 30 min, 1 h, 2 h, 4 h, 7 h and 24 h. Before analysis and detection, all samples were stored at - 60°C. The samples were analysed quantitatively by LC-MS/MS. Table 2.2 Pharmacokinetic parameters of compounds of the present invention in plasma of mice

T1 sequence (Q12809 whole entry): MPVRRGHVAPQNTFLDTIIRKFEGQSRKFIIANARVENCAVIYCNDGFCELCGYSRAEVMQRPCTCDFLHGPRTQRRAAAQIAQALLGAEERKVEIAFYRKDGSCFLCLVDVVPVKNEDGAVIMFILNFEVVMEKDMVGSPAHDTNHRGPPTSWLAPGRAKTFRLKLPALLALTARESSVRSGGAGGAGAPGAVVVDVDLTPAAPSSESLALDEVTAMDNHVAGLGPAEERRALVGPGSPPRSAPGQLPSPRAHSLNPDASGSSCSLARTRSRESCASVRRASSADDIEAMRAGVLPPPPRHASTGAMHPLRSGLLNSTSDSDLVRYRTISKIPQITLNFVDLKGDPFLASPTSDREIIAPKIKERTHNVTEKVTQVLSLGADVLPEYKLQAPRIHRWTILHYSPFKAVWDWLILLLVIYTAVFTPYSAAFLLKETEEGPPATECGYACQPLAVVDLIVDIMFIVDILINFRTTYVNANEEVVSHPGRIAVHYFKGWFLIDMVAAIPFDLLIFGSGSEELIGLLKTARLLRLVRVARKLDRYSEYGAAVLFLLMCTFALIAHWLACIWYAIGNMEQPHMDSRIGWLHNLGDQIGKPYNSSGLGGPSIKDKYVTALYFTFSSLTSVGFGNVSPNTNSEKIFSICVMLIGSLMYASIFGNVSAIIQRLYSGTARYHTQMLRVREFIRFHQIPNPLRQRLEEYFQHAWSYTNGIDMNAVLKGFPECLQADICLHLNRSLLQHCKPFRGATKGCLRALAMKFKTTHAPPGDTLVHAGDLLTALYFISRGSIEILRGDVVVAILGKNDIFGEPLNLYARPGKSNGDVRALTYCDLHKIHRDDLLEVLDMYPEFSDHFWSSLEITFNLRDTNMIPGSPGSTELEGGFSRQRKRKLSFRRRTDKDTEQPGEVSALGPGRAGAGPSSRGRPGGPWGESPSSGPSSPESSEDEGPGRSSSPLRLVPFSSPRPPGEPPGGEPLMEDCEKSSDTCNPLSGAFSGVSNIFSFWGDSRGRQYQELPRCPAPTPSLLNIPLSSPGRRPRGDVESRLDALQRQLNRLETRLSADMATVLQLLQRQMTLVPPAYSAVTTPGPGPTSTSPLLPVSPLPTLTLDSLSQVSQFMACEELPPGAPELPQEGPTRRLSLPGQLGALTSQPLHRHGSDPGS

`Cn1nc(C2CCC(=O)NC2=O)c2cccc(C#CCO[C@@H]3CCN(C[C@H]4CC[C@H](n5cc(NC(=O)c6cnn7ccc(N8CCO[C@H](CO)C8)nc67)c(C(F)F)n5)CC4)C[C@@H]3F)c21` (single isomer, unassigned) [Chiral isomer 1 of compound 20] showed an IC50 in data set [1] of over 40000 nM. In data set [2], this molecule gave a 50% degradation concentration (DC50) of under 20 nM.
For `Cn1nc(C2CCC(=O)NC2=O)c2cccc(C#CCO[C@@H]3CCN(C[C@H]4CC[C@H](n5cc(NC(=O)c6cnn7ccc(N8CCO[C@H](CO)C8)nc67)c(C(F)F)n5)CC4)C[C@@H]3F)c21` (single isomer, unassigned) [Chiral isomer 2 of compound 20], in data set [2], the DC50 is under 20 nM.
With `Cn1c(=O)n(C2CCC(=O)NC2=O)c2cccc(C#CCOC3CCN(C[C@H]4CC[C@H](n5cc(NC(=O)c6cnn7ccc(N8C[C@H]9C[C@@H]8CO9)nc67)c(C(F)F)n5)CC4)CC3)c21` (stereo partly shown) [Control compound 1], the AUC(0-t) at 24 h in data set [3] came out at 2320 ± 146 ng·h/mL.

Usually IC50 stands for the concentration that gives 50% inhibition. The low end stands for higher potency, the high end for lower potency. One may read the DC50 as the midpoint of the concentration-degradation curve. A word on the AUC(0-t): it is the area under the concentration-time curve up to a stated or last time point. Low readings indicate low exposure, high ones high exposure.
